Test results from PMC8494682 (Applied Microbiology and Biotechnology, 2021).
Where two headings read alike, the source gives them in different places.

Experiments:
[1] = target: T1, pantothenate kinase (PanK, Cab1) (Saccharomyces cerevisiae, UniProt Q04430); experiment: radiometric PanK assay with D-[[…]-14C]pantothenate, partially purified enzyme; format: biochemical
T1 construct: wild-type Cab1 expressed from pSBS5 in yeast strain JS91.14-24, partially purified on DEAE sepharose
T1 sequence (Q04430 1-367): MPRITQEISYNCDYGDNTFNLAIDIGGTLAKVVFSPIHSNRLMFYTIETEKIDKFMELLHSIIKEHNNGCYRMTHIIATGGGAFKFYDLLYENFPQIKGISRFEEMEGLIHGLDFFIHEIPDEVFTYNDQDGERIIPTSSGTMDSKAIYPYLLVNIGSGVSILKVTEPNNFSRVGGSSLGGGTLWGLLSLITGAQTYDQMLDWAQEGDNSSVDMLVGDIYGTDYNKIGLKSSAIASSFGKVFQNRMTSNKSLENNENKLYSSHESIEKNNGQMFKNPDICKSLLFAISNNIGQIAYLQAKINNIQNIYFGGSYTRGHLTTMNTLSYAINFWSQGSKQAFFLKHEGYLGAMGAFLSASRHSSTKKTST

[2] = target: T2, pantothenate kinase PanK3 (murine) (Mus musculus, UniProt Q8R2W9); experiment: as above; format: biochemical
T2 construct: murine wild-type PanK3 expressed from pJO73 in yeast strain JS91.14-24, partially purified on DEAE sepharose
T2 sequence (Q8R2W9 1-370): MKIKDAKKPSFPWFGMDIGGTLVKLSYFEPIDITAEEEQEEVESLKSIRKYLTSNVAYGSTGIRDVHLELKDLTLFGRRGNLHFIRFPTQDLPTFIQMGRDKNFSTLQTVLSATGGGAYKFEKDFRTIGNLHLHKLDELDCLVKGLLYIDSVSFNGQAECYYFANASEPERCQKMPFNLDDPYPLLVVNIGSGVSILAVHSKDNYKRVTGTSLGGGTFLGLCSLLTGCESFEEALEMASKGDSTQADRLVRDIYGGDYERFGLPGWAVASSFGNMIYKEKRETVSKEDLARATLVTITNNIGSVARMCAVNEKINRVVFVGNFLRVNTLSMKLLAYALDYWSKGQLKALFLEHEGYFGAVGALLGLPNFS

IC50 ([1]; read-out: IC50) [µM] | SMILES | IC50 [2] [µM] | IC50 [1] [µM]
283 | CC(C)(COP(=O)(O)OP(=O)(O)OC[C@H]1O[C@@H](n2cnc3c(N)ncnc32)[C@H](O)[C@@H]1OP(=O)(O)O)[C@@H](O)C(=O)NCCC(=O)NCCS [Coenzyme A] | – | –
– | CC(=O)SCCNC(=O)CCNC(=O)[C@H](O)C(C)(C)COP(=O)(O)OP(=O)(O)OC[C@H]1O[C@@H](n2cnc3c(N)ncnc32)[C@H](O)[C@@H]1OP(=O)(O)O [acetyl-CoA] | 1 | 36
– | CC(C)(COP(=O)(O)OP(=O)(O)OC[C@H]1O[C@@H](n2cnc3c(N)ncnc32)[C@H](O)[C@@H]1OP(=O)(O)O)[C@@H](O)C(=O)NCCC(=O)NCCSC(=O)CC(=O)O [malonyl-CoA] | – | 812
891 | CCCCCCCCCCCCCCCC(=O)SCCNC(=O)CCNC(=O)[C@H](O)C(C)(C)COP(=O)(O)OP(=O)(O)OC[C@H]1O[C@@H](n2cnc3c(N)ncnc32)[C@H](O)[C@@H]1OP(=O)(O)O [palmitoyl-CoA] | – | –
